{"source": "patent US20230115476A1", "about": "“DIETARY BUTYRATE AND ITS USES” (SOCIETE DES PRODUITS NESTLE S.A., priority 2019, published 2023)", "key": {"colon epithelial cells": {"tested_on": "colon epithelial cells", "conditions": "Gillis et al. 2018; cited from earlier work"}, "[1]": {"tested_on": "Enterobacteriaceae, Salmonella", "conditions": "following oral streptomycin administration; Byndloss 2017, Rivera-Chavez 2016; cited from earlier work"}, "[2]": {"tested_on": "rabbit gastric lipase (RGL) followed by porcine pancreatic lipase (PPL)", "assay": "Sequential in vitro digestion, simulated gastric fluid (SGF) then SIF, pH-stat", "assay_type": "in vitro ADME", "procedure": "(§1) 10 wt% oil in water emulsions stabilised by 0.3 wt% polyoxyethylene sorbitan mono-oleate (Tween® 80) were prepared by mixing the Tween 80 into the oil phase at 40° C., then mixing with the water phase using a magnetic stirrer. An emulsion was then created using a Hielscher UP 400S ultrasonic probe homogeniser equipped with a 5 mm diameter rod-like probe by applying 100% amplitude at 100% cycle for 2 minutes whilst the sample was cooled using ice water.\nThe lipid emulsion (2 mL) containing 200 mg of fat was subjected to gastrointestinal in vitro lipolysis. […] For gastric digestion, the sample was incubated for 90 minutes with 8.5 mL of simulated gastric fluid (SGF), which consisted of 150 mM NaCl, 450 U/mL pepsin, 18 U/mL rabbit gastric lipase at 37° C. and a pH of 5.5.\nThe intestinal digestion step was performed in the pH stat where the pH was kept constant at 6.8 by addition of NaOH (0.05 M). […] The intestinal digestion step starts when the temperature reaches 37 ± 0.5° C. The pH was adjusted to pH 6.8 and after incubation of two minutes at this pH and temperature, a pancreatin solution (5 mM tris, 150 mM NaCl at pH 6.8) was added. The final composition of the intestinal fluid was 10 mM CaCl2, 12 mM mixed bile salts, 0.75 mM phospholipid, 150 mM NaCl and 4 mM tris(hydroxymethyl)aminomethane buffer. The intestinal digestion step was carried out for 3 hours in a titration manager from Radiometer. During the intestinal phase of digestion, the kinetics of digestion were followed using a pH-stat (TIM856, Radiometer) technique and expressed as titratable acid (rather than fatty acid) that was calculated by the equation: […]\n(§2) Since the digestion of dietary lipids involves lipases of both gastric and intestinal origin, lipid digestibility was assessed using two digestion models i) simulated intestinal fluid (SIF) with porcine pancreatic lipase (PPL) and ii) sequential digestion in simulated gastric fluid (SGF) with rabbit gastric lipase (RGL) followed by simulated intestinal fluid (SIF) with porcine pancreatic lipase (PPL)."}, "[3]": {"tested_on": "porcine pancreatic lipase (PPL)", "assay": "In vitro lipolysis in simulated intestinal fluid (SIF), pH-stat", "assay_type": "in vitro ADME", "procedure": "as §1\nThe lipid emulsion (2 mL) containing 200 mg of fat was subjected to gastrointestinal in vitro lipolysis. […]\nThe intestinal digestion step was performed in the pH stat where the pH was kept constant at 6.8 by addition of NaOH (0.05 M). […] During the intestinal phase of digestion, the kinetics of digestion were followed using a pH-stat (TIM856, Radiometer) technique and expressed as titratable acid (rather than fatty acid) that was calculated by the equation: […]\nas §2"}}}
{"molecule": "CCCC(=O)OCC(COC(=O)CCC)OC(=O)CCC", "note": "[tributyrin]", "values": [{"measurement": "Effect on antibiotic-induced lactate production", "setting": "colon epithelial cells", "result": "reduce antibiotic-induced lactate production"}, {"measurement": "Effect on pathogen expansion", "setting": "[1]", "result": "restrict pathogen expansion"}, {"measurement": "Initial lipolysis rate in SIF", "setting": "[2]; SGF-SIF sequential digestion, 90 min SGF pH 5.5 first", "result": "44.1 ± 8.8", "unit": "µmol/min"}, {"measurement": "Lipolysis by gastric lipase", "setting": "[2]; indicated by decreased total fatty acid release in SIF after RGL in SGF", "result": "~ 60%"}, {"measurement": "Hydrolysis in the stomach (gastric lipolysis)", "setting": "[2]; overall conclusion in words", "result": "extensive hydrolysis in the stomach"}, {"measurement": "Initial rate of lipolysis", "setting": "[3]; SIF alone, emulsion with 200 mg fat, pH 6.8, 37° C.", "result": "223 ± 59", "unit": "µmol/min"}, {"measurement": "Extent of digestion", "setting": "[3]; back titration to pH 11.5, overall extent after SIF and SGF-SIF (FIG. 2)", "result": "101.5 ± 0.9", "unit": "%"}]}
